Broadly, the EC50 is the concentration that produces a half-maximal response.

Experimental findings from patent publication US10987359B2, “Oxadiazepinone derivatives and methods of treating hepatitis B infections” (priority 2016, dated 2021) are described below.

One assay has as its system HBV. Nature of the assay: HBV replication inhibition assay (BDNA assay) in HepG2.2.15 cells. It is filed as cell-based. Particulars: HBV replication assay (BDNA assay), HepG2.2.15 cells; read-out: DNA EC50. The gist of the method:
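Supernatant encapsidated HBV DNA was measured by bDNA after DNase digestion and proteinase K release. Stably HBV-integrated HepG2.2.15 cells had two 3-day compound exposures (0.5% DMSO). Signals were background-subtracted and normalized to DMSO wells, and EC50 was obtained by four-parameter fit.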
Regarding `C[C@@H]1Cc2nn3c(c2CN1C(=O)Nc1ccc(F)c(Br)c1)C(=O)N(C)OC(COCC(F)F)C3` (stereo in doubt) [Compound 122_D2, (4R*,9R)—N-(3-bromo-4-fluorophenyl)-4-((2,2-difluoroethoxy)methyl)-2,9-dimethyl-1-oxo-1,4,5,8,9,11-hexahydropyrido[4′,3′:3,4]pyrazolo[5,1-d][1,2,5]oxadiazepine-10(2H)-carboxamide], the half-maximal effective concentration (EC50) fell in the range of 1 to 100 nM. Regarding `C[C@@H]1Cc2nn3c(c2CN1C(=O)Nc1ccnc(Br)c1F)C(=O)N(C)OC(COCC(F)F)C3` (stereo in doubt) [Compound 123_D1, (4S*,9R)—N-(2-bromo-3-fluoropyridin-4-yl)-4-((2,2-difluoroethoxy)methyl)-2,9-dimethyl-1-oxo-1,4,5,8,9,11-hexahydropyrido[4′,3′:3,4]pyrazolo[5,1-d][1,2,5]oxadiazepine-10(2H)-carboxamide], the EC50 was 100 to 500 nM.

Turning to `C[C@@H]1Cc2nn3c(c2CN1C(=O)Nc1ccnc(Br)c1F)C(=O)N(C)OC(COCC(F)F)C3` (stereo in doubt) [Compound 123_D2, (4R*,9R)—N-(2-bromo-3-fluoropyridin-4-yl)-4-((2,2-difluoroethoxy)methyl)-2,9-dimethyl-1-oxo-1,4,5,8,9,11-hexahydropyrido[4′,3′:3,4]pyrazolo[5,1-d][1,2,5]oxadiazepine-10(2H)-carboxamide], the EC50 lay in the range of 1 to 100 nM. Regarding `C[C@@H]1Cc2nn3c(c2CN1C(=O)Nc1ccc(F)c(C#N)c1)C(=O)N(C)OC(COCC(F)F)C3` (stereo in doubt) [Compound 124_D2, (4R*,9R)—N-(3-cyano-4-fluorophenyl)-4-((2,2-difluoroethoxy)methyl)-2,9-dimethyl-1-oxo-1,4,5,8,9,11-hexahydropyrido[4′,3′:3,4]pyrazolo[5,1-d][1,2,5]oxadiazepine-10(2H)-carboxamide], the EC50 fell in the range of 1 to 100 nM. `Cc1cc(NC(=O)N2Cc3c(nn4c3C(=O)N(C)OC(COCC(F)F)C4)C[C@H]2C)ccc1F` (stereo in doubt) [Compound 125_D2, (4R*,9R)-4-((2,2-difluoroethoxy)methyl)-N-(4-fluoro-3-methylphenyl)-2,9-dimethyl-1-oxo-1,4,5,8,9,11-hexahydropyrido[4′,3′:3,4]pyrazolo[5,1-d][1,2,5]oxadiazepine-10(2H)-carboxamide]: the half-maximal effective concentration (EC50) was in the range of 1 to 100 nM. Consider `C[C@@H]1Cc2nn3c(c2CN1C(=O)Nc1ccc(F)c(C(F)(F)F)c1)C(=O)N(C)OC(COCC(F)F)C3` (stereo in doubt) [Compound 126_D1, (4S*,9R)-4-((2,2-difluoroethoxy)methyl)-N-(4-fluoro-3-(trifluoromethyl)phenyl)-2,9-dimethyl-1-oxo-1,4,5,8,9,11-hexahydropyrido[4′,3′:3,4]pyrazolo[5,1-d][1,2,5]oxadiazepine-10(2H)-carboxamide], for which the concentration giving a half-maximal response (EC50) fell in the range of 100 to 500 nM.

`C[C@@H]1Cc2nn3c(c2CN1C(=O)Nc1ccc(F)c(C(F)(F)F)c1)C(=O)N(C)OC(COCC(F)F)C3` (stereo in doubt) [Compound 126_D2, (4R*,9R)-4-((2,2-difluoroethoxy)methyl)-N-(4-fluoro-3-(trifluoromethyl)phenyl)-2,9-dimethyl-1-oxo-1,4,5,8,9,11-hexahydropyrido[4′,3′:3,4]pyrazolo[5,1-d][1,2,5]oxadiazepine-10(2H)-carboxamide]: the EC50 lay within 1 to 100 nM. Same read-out and setting: the same measure for `C[C@@H]1Cc2nn3c(c2CN1C(=O)Nc1ccc(F)c(C#N)c1F)C(=O)N(C)OC(C(=O)N(C)CC(F)F)C3` (stereo in doubt) [Compound 153_D1, (4S*,9R)—N10-(3-cyano-2,4-difluorophenyl)-N4-(2,2-difluoroethyl)-N4,2,9-trimethyl-1-oxo-1,4,5,8,9,11-hexahydropyrido[4′,3′:3,4]pyrazolo[5,1-d][1,2,5]oxadiazepine-4,10(2H)-dicarboxamide]: 100 to 500 nM. In the case of `C[C@@H]1Cc2nn3c(c2CN1C(=O)Nc1ccc(F)c(C#N)c1F)C(=O)N(C)OC(C(=O)N(C)CC(F)F)C3` (stereo in doubt) [Compound 153_D2, (4R*,9R)—N10-(3-cyano-2,4-difluorophenyl)-N4-(2,2-difluoroethyl)-N4,2,9-trimethyl-1-oxo-1,4,5,8,9,11-hexahydropyrido[4′,3′:3,4]pyrazolo[5,1-d][1,2,5]oxadiazepine-4,10(2H)-dicarboxamide], the half-maximal effective concentration (EC50) lay in the range of 1 to 100 nM.

For the compound `C[C@@H]1Cc2nn3c(c2CN1C(=O)Nc1cc(Cl)c(F)cc1F)C(=O)N(C)OC(C(=O)N(C)CC(F)F)C3` (stereo in doubt) [Compound 154_D1, (4S*,9R)—N10-(5-chloro-2,4-difluorophenyl)-N4-(2,2-difluoroethyl)-N4,2,9-trimethyl-1-oxo-1,4,5,8,9,11-hexahydropyrido[4′,3′:3,4]pyrazolo[5,1-d][1,2,5]oxadiazepine-4,10(2H)-dicarboxamide], the EC50 was 500 to 1000 nM. On the same count and under the same terms, the result for `C[C@@H]1Cc2nn3c(c2CN1C(=O)Nc1cc(Cl)c(F)cc1F)C(=O)N(C)OC(C(=O)N(C)CC(F)F)C3` (stereo in doubt) [Compound 154_D2, (4R*,9R)—N10-(5-chloro-2,4-difluorophenyl)-N4-(2,2-difluoroethyl)-N4,2,9-trimethyl-1-oxo-1,4,5,8,9,11-hexahydropyrido[4′,3′:3,4]pyrazolo[5,1-d][1,2,5]oxadiazepine-4,10(2H)-dicarboxamide] reads 1 to 100 nM; that for `C[C@@H]1Cc2nn3c(c2CN1C(=O)Nc1ccc(F)c(C#N)c1)C(=O)N(C)OC(C(=O)N(C)CC(F)F)C3` (stereo in doubt) [Compound 155_D1, (4S*,9R)—N10-(3-cyano-4-fluorophenyl)-N4-(2,2-difluoroethyl)-N4,2,9-trimethyl-1-oxo-1,4,5,8,9,11-hexahydropyrido[4′,3′:3,4]pyrazolo[5,1-d][1,2,5]oxadiazepine-4,10(2H)-dicarboxamide], 500 to 1000 nM.

As for `C[C@@H]1Cc2nn3c(c2CN1C(=O)Nc1ccc(F)c(C#N)c1)C(=O)N(C)OC(C(=O)N(C)CC(F)F)C3` (stereo in doubt) [Compound 155_D2, (4R*,9R)—N10-(3-cyano-4-fluorophenyl)-N4-(2,2-difluoroethyl)-N4,2,9-trimethyl-1-oxo-1,4,5,8,9,11-hexahydropyrido[4′,3′:3,4]pyrazolo[5,1-d][1,2,5]oxadiazepine-4,10(2H)-dicarboxamide], the 50% effective concentration (EC50) was in the range of 1 to 100 nM. Still for that read-out and setting: the result for `C[C@@H]1Cc2nn3c(c2CN1C(=O)Nc1ccc(F)c(C#N)c1)C(=O)N(C)OC(CNCC(F)F)C3` (stereo in doubt) [Compound 183_D2, (4R*,9R)—N-(3-cyano-4-fluorophenyl)-4-(((2,2-difluoroethyl)amino)methyl)-2,9-dimethyl-1-oxo-1,4,5,8,9,11-hexahydropyrido[4′,3′:3,4]pyrazolo[5,1-d][1,2,5]oxadiazepine-10(2H)-carboxamide] reads 1 to 100 nM.

Staying with this assay, now noted: Hepatitis B virus, HepG2.2.15, HBV replication assay (BDNA assay), HepG2.2.15 cells; read-out: DNA EC50.
As to `C[C@@H]1Cc2nn3c(c2CN1C(=O)Nc1ccc(F)c(C#N)c1)C(=O)N(C)OC(COCC(F)F)C3` (stereo in doubt) [Compound 124_D1, (4S*,9R)—N-(3-cyano-4-fluorophenyl)-4-((2,2-difluoroethoxy)methyl)-2,9-dimethyl-1-oxo-1,4,5,8,9,11-hexahydropyrido[4′,3′:3,4]pyrazolo[5,1-d][1,2,5]oxadiazepine-10(2H)-carboxamide], the half-maximal effective concentration (EC50) was 1 to 100 nM. Same read-out and setting: the same measure for `Cc1cc(NC(=O)N2Cc3c(nn4c3C(=O)N(C)OC(COCC(F)F)C4)C[C@H]2C)ccc1F` (stereo in doubt) [Compound 125_D1, (4S*,9R)-4-((2,2-difluoroethoxy)methyl)-N-(4-fluoro-3-methylphenyl)-2,9-dimethyl-1-oxo-1,4,5,8,9,11-hexahydropyrido[4′,3′:3,4]pyrazolo[5,1-d][1,2,5]oxadiazepine-10(2H)-carboxamide]: 1 to 100 nM; for `C[C@@H]1Cc2nn3c(c2CN1C(=O)Nc1cc(Cl)c(F)cc1F)C(=O)N(C)OC(COCC(F)F)C3` (stereo in doubt) [Compound 127_D2, (4R*,9R)—N-(5-chloro-2,4-difluorophenyl)-4-((2,2-difluoroethoxy)methyl)-2,9-dimethyl-1-oxo-1,4,5,8,9,11-hexahydropyrido[4′,3′:3,4]pyrazolo[5,1-d][1,2,5]oxadiazepine-10(2H)-carboxamide]: 1 to 100 nM; for `C[C@@H]1Cc2nn3c(c2CN1C(=O)Nc1ccc(F)c(Cl)c1F)C(=O)N(C)OC(C(=O)N(C)CC(F)F)C3` (stereo in doubt) [Compound 152_D2, (4R*,9R)—N10-(3-chloro-2,4-difluorophenyl)-N4-(2,2-difluoroethyl)-N4,2,9-trimethyl-1-oxo-1,4,5,8,9,11-hexahydropyrido[4′,3′:3,4]pyrazolo[5,1-d][1,2,5]oxadiazepine-4,10(2H)-dicarboxamide]: 1 to 100 nM. In the case of `CNC(=O)C1Cn2nc3c(c2C(=O)N(C)O1)CN(C(=O)Nc1ccc(F)c(C#N)c1F)[C@H](C)C3` (stereo in doubt) [Compound 156_D2, (4R*,9R)—N10-(3-cyano-2,4-difluorophenyl)-N4,2,9-trimethyl-1-oxo-1,4,5,8,9,11-hexahydropyrido[4′,3′:3,4]pyrazolo[5,1-d][1,2,5]oxadiazepine-4,10(2H)-dicarboxamide], the half-maximal effective concentration (EC50) was 1 to 100 nM. Consider `C[C@@H]1Cc2nn3c(c2CN1C(=O)Nc1ccc(F)c(C#N)c1)C(=O)N(C)OC(CNCC(F)F)C3` (stereo in doubt) [Compound 183_D1, (4S*,9R)—N-(3-cyano-4-fluorophenyl)-4-(((2,2-difluoroethyl)amino)methyl)-2,9-dimethyl-1-oxo-1,4,5,8,9,11-hexahydropyrido[4′,3′:3,4]pyrazolo[5,1-d][1,2,5]oxadiazepine-10(2H)-carboxamide], for which the concentration giving a half-maximal response (EC50) is 1 to 100 nM. On the same count and under the same terms, the same measure for `C[C@@H]1Cc2nn3c(c2CN1C(=O)Nc1ccc(F)c(Br)c1)C(=O)N(C)OC(CNCC(F)F)C3` (stereo in doubt) [Compound 184_D1, (4S*,9R)—N-(3-bromo-4-fluorophenyl)-4-(((2,2-difluoroethyl)amino)methyl)-2,9-dimethyl-1-oxo-1,4,5,8,9,11-hexahydropyrido[4′,3′:3,4]pyrazolo[5,1-d][1,2,5]oxadiazepine-10(2H)-carboxamide]: 1 to 100 nM.
